Reference: publication PMC6450887, “Metabolic resistance of the D-peptide RD2 developed for direct elimination of amyloid-β oligomers” (Scientific Reports, 2019)
“And” between values parts separate entries of the source, which are not always exact repeats. Equal values may be shown once. One block for each compound: values may come before it. Non-standard residues stand in square brackets, D forms with d. Residues, ends and D or L forms follow the SMILES beside them. No end group written: not given here. *: point of attachment. X1 = C[C@H](O)[C@H](C(=O)*)N1CN2CCC[C@@H]2C1=O

How the values were obtained:
[1] = Stability of purified HSM-3 stored in solution (MALDI-MS, UHPLC-ESI-QTOF-MS); assay type: physicochemical; conditions: stored in solution at low temperatures
[2] = MTT cell viability assay; assay type: cell-based, rat; conditions: cell viability
Method: (§1) Rat PC12 (pheochromocytoma) cells (Leibniz Institute DSMZ, Braunschweig, Germany) were cultivated in Dulbecco’s Modified Eagle Medium (DMEM) supplemented with 10% fetal bovine serum, 5% horse serum and 1% penicillin-streptomycin. 10,000 cells per well were seeded on collagen A-coated 96-well plates (Thermo Fisher Scientific, Waltham, USA) and incubated in a 95% humidified atmosphere with 5% CO2 at 37 °C for 24 h. Samples with untreated RD2 and RD2 or HSM-3 purified from human liver microsomes (see 2.8) in 10 mM sodium phosphate buffer (pH 7.4) were prepared. Buffer without peptides and Triton X-100 (cytotoxic compound) served as controls. The samples were added to the PC12 cells in quadruple and incubated in 95% humidified atmosphere with 5% CO2 at 37 °C for 24 h. Final concentrations were 2 µM untreated RD2, purified RD2, purified HSM-3 and 0.125% Triton X-100. Cell viability was then measured using the Cell Proliferation Kit I (MTT) (Roche, Basel, Switzerland) according to the manufacturer’s instruction. The final absorbance of the formazan product was determined as the absorbance at 570 nm subtracted by the absorbance at 660 nm. All results were normalized to cells that were treated with buffer only. The experiments were performed in triplicate.

[3] = Comparison of RD2 metabolite profiles across species: rat liver microsomes; assay type: in vitro ADME; conditions: rat microsome batches, LC-MS
Method: (§2) The preparation of the media was performed as described before in Elfgen et al.[24]. Preparation of simulated gastric and intestinal fluid (SGF & SIF) was done according to the European Pharmacopoeia 7.0. Plasma samples were obtained from human blood of a volunteer donor. Pooled human liver microsomes were purchased from Sekisui XenoTech (Kansas City, USA; H1000, Lot: 0710494 and 1210270; H1500, Lot: 1210079), from Sigma-Aldrich (St. Louis, USA; M0692, Lot: SLBL1433V; M0567, Lot: SLBR2706V and SLBN7300V) and from Gibco, Thermo Fisher Scientific (Waltham, USA; HMMCPL, Lot: PL050; HMMCPM, Lot: PL039). Pooled Sprague Dawley rat liver microsomes were purchased from Sigma-Aldrich (St. Louis, USA; M9066, Lot: SLBN0707V) and from Gibco, Thermo Fisher Scientific (Waltham, USA; RTMCPL, Lot: RT053). Pooled cynomolgus monkey liver microsomes were purchased from Gibco, Thermo Fisher Scientific (Waltham, USA; MKMCPL, Lot: MK062) and from Sekisui XenoTech (Kansas City, USA; P2000, Lot: 1210334). The liver microsomes were diluted in an NADPH regenerating system (NRS).
(§3) For the stability tests, 150 µM RD2 or L-RD2 was incubated in SGF, SIF, human plasma and human liver microsomes in triplicate at 37 °C with slight shaking for different time periods. To prevent microbial contaminations in long-term plasma incubations, 0.1% sodium azide was added to the solutions. Microsomal long-term activity was examined by incubating microsomes without peptide for up to 24 h and adding L-RD2 after 8 and 24 h. The ability to degrade L-RD2 served as indicator for their activity. For the comparison of RD2 metabolite profiles across species, 150 µM RD2 was incubated in human, rat and cynomolgus liver microsomes at 37 °C for 2 and 24 h. […]
(§4) For the comparison of RD2 metabolite profiles across species (see 2.3), mobile phases were acetonitrile (A) and water (B) each supplemented with 0.1% TFA. […] The amount of the purified HSM-3 was calculated based on a calibration curve of 10 to 100 µM RD2 extracted from human liver microsomes.

[4] = Comparison of RD2 metabolite profiles across species: cynomolgus liver microsomes; assay type: in vitro ADME, cynomolgus monkey; conditions: cynomolgus microsome batches, LC-MS
Method: as §2, §3, §4

[5] = Comparison of RD2 metabolite profiles across species: human liver microsomes; assay type: in vitro ADME
Method: as §2
(§5) For the stability tests, 150 µM RD2 or L-RD2 was incubated in SGF, SIF, human plasma and human liver microsomes in triplicate at 37 °C with slight shaking for different time periods. To prevent microbial contaminations in long-term plasma incubations, 0.1% sodium azide was added to the solutions. Microsomal long-term activity was examined by incubating microsomes without peptide for up to 24 h and adding L-RD2 after 8 and 24 h. The ability to degrade L-RD2 served as indicator for their activity. For the comparison of RD2 metabolite profiles across species, 150 µM RD2 was incubated in human, rat and cynomolgus liver microsomes at 37 °C for 2 and 24 h. The peptides were extracted by precipitating the proteins with trichloroacetic acid (TCA) and subsequent centrifugation, as described previously in Elfgen et al.[24]. Peptides immediately extracted from the media and precipitated media without peptides served as controls.
For the comparison of RD2 metabolite profiles across species (see 2.3), mobile phases were acetonitrile (A) and water (B) each supplemented with 0.1% TFA. The gradient ran from 0 to 100% solvent A and is described in detail in Table S1. The chromatographic RD2 metabolite profiles were screened for potential human-specific metabolites. RD2 and the major RD2 metabolite present after 24 h of incubation in human liver microsome batches 7 and 8, HSM-3, were purified by RP-HPLC. Mobile phases were acetonitrile (A) and water (B) each supplemented with 0.15% TFA. The samples were separated isocratically at 10% solvent A for 30 min. RD2 as well as HSM-3 were collected and the samples were freeze-dried subsequently. The amount of the purified HSM-3 was calculated based on a calibration curve of 10 to 100 µM RD2 extracted from human liver microsomes.

[6] = Stability in human liver microsomes, RP-HPLC / UHPLC-ESI-QTOF-MS; assay type: in vitro ADME
Method: as §2, §5
For sample analysis from stability tests (see 2.3), mobile phases were acetonitrile (A) and water (B) each supplemented with 0.15% trifluoroacetic acid (TFA) (v/v). The samples were measured isocratically at 10% solvent A for 30 min. This run conditions allowed us to detect smallest chemical changes including the differentiation between the original compound and a deamidated version (Fig. S1). RD2 and L-RD2 can potentially be deamidated at two sites, the C-terminus and the asparagine at position seven. Peak areas of the unmetabolized peptides after different incubation times were normalized to the peptides’ peak areas after direct extraction from the media. […] A chromatographic metabolite profile of L-RD2 in SIF was recorded with the same mobile phases but using a gradient from 0 to 30% solvent A in 30 min. […]

[7] = Stability in simulated gastric fluid (SGF), RP-HPLC; assay type: in vitro ADME; conditions: 37 °C, read-out: peptide degraded
Method: as §2, with “The liver microsomes were diluted in an NADPH regenerating system (NRS).” left out
(§6) For sample analysis from stability tests (see 2.3), mobile phases were acetonitrile (A) and water (B) each supplemented with 0.15% trifluoroacetic acid (TFA) (v/v). The samples were measured isocratically at 10% solvent A for 30 min. […] A chromatographic metabolite profile of L-RD2 in SIF was recorded with the same mobile phases but using a gradient from 0 to 30% solvent A in 30 min.

[8] = Stability in simulated intestinal fluid (SIF), RP-HPLC; assay type: in vitro ADME; conditions: a few seconds
Method: as §2, §3, §6

[9] = Stability in human plasma, RP-HPLC; assay type: in vitro ADME; conditions: female, 37 °C
Method: as §2, §5
For sample analysis from stability tests (see 2.3), mobile phases were acetonitrile (A) and water (B) each supplemented with 0.15% trifluoroacetic acid (TFA) (v/v). The samples were measured isocratically at 10% solvent A for 30 min. This run conditions allowed us to detect smallest chemical changes including the differentiation between the original compound and a deamidated version (Fig. S1). RD2 and L-RD2 can potentially be deamidated at two sites, the C-terminus and the asparagine at position seven. Peak areas of the unmetabolized peptides after different incubation times were normalized to the peptides’ peak areas after direct extraction from the media. […] A chromatographic metabolite profile of L-RD2 in SIF was recorded with the same mobile phases but using a gradient from 0 to 30% solvent A in 30 min.

[10] = target: T1, human D-amino acid oxidase (hDAAO) (Homo sapiens, UniProt P14920); experiment: hDAAO activity assay (substrate test); assay type: biochemical; conditions: 0.2 mM D-alanine as substrate, 2 h incubation
T1 construct: made in house; host or cells: E. coli
T1 sequence (P14920 whole entry): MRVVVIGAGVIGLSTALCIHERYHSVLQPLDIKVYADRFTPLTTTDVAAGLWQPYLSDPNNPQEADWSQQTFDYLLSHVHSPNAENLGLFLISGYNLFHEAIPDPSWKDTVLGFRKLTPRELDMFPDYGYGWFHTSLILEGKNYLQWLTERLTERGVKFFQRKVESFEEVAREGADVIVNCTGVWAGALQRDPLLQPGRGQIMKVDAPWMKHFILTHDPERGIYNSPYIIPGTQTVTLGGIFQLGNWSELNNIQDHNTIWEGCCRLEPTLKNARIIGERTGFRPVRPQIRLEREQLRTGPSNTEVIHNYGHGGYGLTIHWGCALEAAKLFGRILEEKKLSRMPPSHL
Method: (§7) For hDAAO activity and inhibition assays, the tested substances were incubated with 0.17 U/mL recombinant hDAAO, 0.1 U/mL horseradish peroxidase (Roche, Switzerland) and 4 µM flavin adenine dinucleotide (FAD) in 50 mM sodium phosphate buffer (pH 7.4). […] The Amplex UltraRed reagent is a fluorogenic substrate for horseradish peroxidase that reacts with the hydrogen peroxide produced by the oxidative deamination of D-amino acids to build Amplex UltroxRed, a fluorescent reaction product, which served as indicator for hDAAO activity. All enzymatic assays were conducted at room temperature in 96-well plate format using an automated liquid-handler system (epMotion 5075; Eppendorf, Hamburg, Germany). Recombinant hDAAO was overexpressed in E. coli and purified as previously reported.
To investigate whether RD2 acts as substrate for hDAAO, the enzyme was incubated with 2.9 mM RD2, horseradish peroxidase and FAD for up to 6 h and the fluorescence signal of the Amplex UltroxRed reagent was measured (sample values). Positive control measurements using 0.2 mM D-alanine as substrate were performed in parallel. Additionally, negative control measurements without substrates were performed. The relative emission at 590 nm was determined by subtracting control measurements to sample values.

[11] = target: T1, human D-amino acid oxidase (hDAAO); experiment: hDAAO inhibition assay; assay type: biochemical; conditions: 7.5 mM D-serine, 30 min
Method: as §7
To examined whether RD2 inhibits hDAAO activity, the enzyme was incubated with 7.5 mM D-serine alone and together with 0 to 625 µM RD2 or sodium benzoate (a known hDAAO inhibitor)[30], horseradish peroxidase and FAD for 30 min and the fluorescence signal of Amplex UltroxRed was recorded. hDAAO residual activity in the presence of different concentrations of RD2 or sodium benzoate was expressed relatively to the values recorded in the absence of ligands (set as 100% activity). The data were fit to a four-parameter equation to determine the curve top, bottom, IC50 and Hill slope.

[12] = tested on: Rat PC12 (pheochromocytoma) cells; experiment: MTT cell viability assay; assay type: cell-based; conditions: 0.125% Triton X-100, PC12 cells, 24 h, MTT
Method: as §1

[13] = target: T2, CYP1A (Homo sapiens, UniProt P05177); experiment: CYP isoform inhibition in human liver microsomes (Cyprotex); conditions: human, human liver microsomes, probe ethoxyresorufin (0.5 µM)
T2 sequence (P05177 2-516): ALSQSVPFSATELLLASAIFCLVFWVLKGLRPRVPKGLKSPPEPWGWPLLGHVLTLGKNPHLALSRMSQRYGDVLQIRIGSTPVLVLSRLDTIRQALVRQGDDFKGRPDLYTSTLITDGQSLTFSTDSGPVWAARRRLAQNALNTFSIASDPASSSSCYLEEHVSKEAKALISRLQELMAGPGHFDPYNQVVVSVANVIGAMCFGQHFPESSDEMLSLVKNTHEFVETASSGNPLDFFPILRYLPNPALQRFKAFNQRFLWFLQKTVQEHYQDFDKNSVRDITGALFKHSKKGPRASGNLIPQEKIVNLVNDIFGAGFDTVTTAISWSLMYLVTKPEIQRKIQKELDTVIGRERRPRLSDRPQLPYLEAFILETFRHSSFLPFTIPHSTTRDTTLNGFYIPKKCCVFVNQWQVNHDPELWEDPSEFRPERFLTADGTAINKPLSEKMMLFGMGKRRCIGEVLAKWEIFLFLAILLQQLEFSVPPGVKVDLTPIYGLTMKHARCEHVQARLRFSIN
Method: The experiments were performed by Cyprotex. […] The reactions were terminated by methanol and the generated metabolites were monitored by LC-MS/MS or fluorescence. […] All assays were performed sevenfold. […] For all other substrates, the termination plates were centrifuged at 2,500 rpm and 4 °C for 30 min and aliquots of the supernatants were combined and transferred to fresh 96-well plates. Formic acid in deionized water (final concentration 0.1%) containing internal standard was added to the supernatants prior to cassette analysis by LC-MS/MS. A decrease in the formation of the metabolite compared to the vehicle control was used to calculate the IC50 values.

Compound: C[C@@H](N)C(=O)O [D-alanine]
recorded emission at 590 nm [10]: 61125 ± 2120 AU

Compound: O=C([O-])c1ccccc1.[Na+] [sodium benzoate]
decrease in hDAAO activity ([11]; 625 µM): 92.8 ± 0.1% and 93 ± 0.1%
IC50 ([11]; read-out: IC50 hDAAO (four-parameter fit)): 7 µM

Compound: Triton X-100 [reference compound]
cell viability [12]: 14 ± 1%

Compound: O=c1cc(-c2ccccc2)oc2c1ccc1ccccc12 [Alpha-naphthoflavone, reference compound]
IC50 [13]: 0.0781 µM

Further lines, with some results ahead:

detection of HSM-3 after incubation of RD2 [3]: not detectable
detection of HSM-3 after incubation of RD2 [4]: not detectable
metabolite relative to the parent compound ([5]; human microsome batches 7 and 8, 2 h): 1% and 5%
metabolite relative to the parent compound ([5]; human microsome batches 7 and 8, 24 h): 31% and 52%
detection of HSM-3 after incubation of RD2 ([5]; other six human microsome batches, LC-MS): not detectable
Compound: CC(C)C[C@@H](NC(=O)[C@@H]([C@H](C)O)N1CN2CCC[C@@H]2C1=O)C(=O)N[C@H](Cc1c[nH]cn1)C(=O)N[C@@H](C(=O)N[C@H](Cc1c[nH]cn1)C(=O)N[C@H](CC(N)=O)C(=O)N[C@H](CCCNC(=N)N)C(=O)N[C@H](CCCNC(=N)N)C(=O)N[C@H](CCCNC(=N)N)C(=O)N[C@H](CCCNC(=N)N)C(=O)N[C@H](CCCNC(=N)N)C(N)=O)[C@H](C)O [HSM-3] (X1-[dL][dH][dT][dH][dN][dR][dR][dR][dR][dR]-NH2; C-terminus assumed)
stability of purified HSM-3 in solution [1]: instable and reacted back to RD2
viability at 2 µM [2]: 99 ± 3%

metabolised at 24 h, 150 µM [7]: 23 ± 4%
metabolised at 24 h, 150 µM ([9]; 150 µM, within one day, read-out: peptide degraded): 92 ± 4%
half-life at 150 µM ([9]; read-out: half-life (first order kinetics fit) (converted)): 2 h
Compound: PTLHTHNRRRRR-NH2 [L-RD2, reference compound]
deamidation in human liver microsomes ([6]; UHPLC-ESI-QTOF-MS): increasingly metabolized to the one-fold deamidated species
metabolised at 0.5 h, 150 µM ([6]; pooled human liver microsomes, 150 µM, 37 °C, within 30 min, read-out: peptide degraded): 87 ± 1%
metabolization in SIF ([8]; 150 µM): completely metabolized within a few seconds

detection of the peptide after incubation in SIF [8]: could not be detected
Compound: KLVFFRRRRRR-NH2
